Here are results for one compound from US4690935A, “Inhibition of tumor growth and metastasis with calcium channel blocker compounds” (Wayne State University, priority 1983, dated 1987).

Entries after “also recorded” stand apart in the source; their conditions may differ. Where two headings read alike, the source gives them in different places.

For assay [1], the system named is Walker 256 L-Pam tumor cell. As to the kind of experiment: Walker 256 L-Pam tumor cell attachment to virally transformed endothelial cell monolayer (RCE-T1). It is filed as cell-based, rat. Particulars: 0.04 mg/ml; for effect on tumor cell adhesion to endothelial cell monolayer (in words): thirty minutes preincubation; for inhibition at 40 µg/mL: Rattus norvegicus, Walker 256, 1 h, 1 h plating, x ± SEM, n = 4, read-out: % Inhibition vs Control (attachment to endothelial cells). As to the method:
Walker ^256 L-Pam tumor cells were plated at approximately 5×10^5 cells/flask. The cells were labelled with ^125 I-UDR (iodinated uridine deoxyribonucleic acid) at 0.5 microcuries/ml media (5.0 microcurie/flask). Cells were incubated for approximately 24 hours and the cell count/flask was determined to be 8.14×10^5 cell/flask. The cells from each flask were counted (gamma counter) and found to have an average of 0.24 cpm/cell.
Platelet enhanced tumor cell attachment to plastic was tested using four conditions: tumor cell alone (Condition A), tumor cells plus washed platelets (Condition B), tumor cells plus platelet poor plasma (Condition C) and tumor cells, washed platelets and platelet poor plasma (Condition D).
Walker 256 L-Pam tumor cells obtained from culture are radiolabeled with ^125 I-UDR as described previously. The radiolabeled cells are removed from T-75 flasks with trypsin (2 milliliters of 0.25% trypsin and 0.01% EDTA) in MEM. After two minutes, the flasks are washed 3X with trypsin "quench," 10% fetal calf serum in MEM, to quench and remove the trypsin in order to prevent cell lysis. The tumor cells are removed from the flasks in MEM and adjusted to 2.5×10^5 cells /milliliter. One hundred microliters of the tumor cell suspension (2.5×10^4 cells) were plated in […] tissue culture wells (Costar) and overlaid with 250 microliters of Wash Solution #2 (see Platelet Prep). The cells were incubated at room temperature (approximately 22° C.) for 5 minutes. Following this incubation 10 microliters of 7.35 mg/ml CaCl2 were added to the culture wells, 10 microliters of platelet poor plasma (diluted 1:32 with platelet Wash Solution #2) were added to culture wells for Conditions C and D and 250 microliters of washed platelets (3×10^8 /ml final concentration) were added to culture wells for Conditions B and D. Where appropriate, Wash Solution #2 was added to wells (Conditions A and C) so that all wells had the same final volume of solutions. The wells were incubated for one hour at 37° C. After the one hour incubation, the media containing any unattached tumor cells were removed by aspiration and then the wells were washed 2X with 1 ml of sodium phosphate buffer (PBS). The adhering cells were removed by trypsinization (as described above) and counts per wells determined using a gamma counter. Results were determined as total cpm plated per well.
Platelet enhanced tumor cell attachment to a virally transformed endothelial cell monolayer (on plastic wells) was also tested. The experimental protocal utilized was similar to that described above. The only significant difference is that in the above assay the floor of each incubation well is the plastic material of the plate, and in these assays, that plastic floor is covered with a confluent monolayer of virally transformed rat cerebral microvascular endothelial cells. The cells were prepared and plated as described in detail in Laboratory Investigations, Vol 46, No. 6, […], 1982 (Diglio, C. A., Grammas, P., Giacomelli, F., and Wiener, J., Lab. Investigations Vol 46, No. 6, p554-563, 1982) and in J. Cell. Biol (Manuscript accepted 3/83) (Diglio, C., Wolfe, D. E., and Meyers, P. J. Cell. Biol. manuscript in press, 1983). Briefly, rat endothelial cells were dispersed from […] microvasculature by collagenase treatment. Migrating cells and cell proliferation are seen. Isolated cells are allowed to proliferate in culture until the expected "cobblestone" appearance characteristic of normal endothelial cells is obtained.
Cultured (subconfluent) normal endothelial cells are infected with Schmidt-Ruppin Rous Sarcoma virus-strain D (SR-RSV-D). A single transformed focus was isolated and recultured. The resulting transformed endothelial cell line was designated RCE-T1 (also known as SR-D1).
In the actual assay, the protocol for tumor cell adhesion to plastic or transformed endothelial cell are similar. […]

In a further assay the test system is B16a Tumor Cells. As to the kind of experiment: 3H-thymidine incorporation into DNA of cultured B16a tumor cells. The class given is cell-based, mouse. The conditions noted are these: for effect on 3H-thymidine incorporation (in words): B16a tumor cell DNA. As to the method:
^3 H-thymidine incorporation studies were designed to measure the effects of BAY e 9736, nimodipine on the incorporation of ^3 H-thymidine into the DNA of B16a tumor cells. One ml of cultured B16a tumor cells (in MEM+10% fetal calf serum) at 1×10^5 cells/ml are placed into plastic incubation tubes. The cells are incubated for 15 minutes at 37° C. in the presence of five microliters of dilutent (DMSO, dimethyl sulfoxide) alone or dilutent containing BAY e 9736. After 15 minutes, which is considered the preincubation period, the cells are incubated for one hour (at 37° C.) in the presence of one microcurie (per ml) ^3 H-thymidine. The assay is terminated by the addition of one milliliter of cold trichloroacetic acid, TCA, (6% w/v). The cells are centrifuged at 10,000×g ×4 minutes. The supernatant is discarded. The resulting pellet is resuspended in one milliliter of TCA, vortexed and then repelleted by centrifugation at 10,000 ×g ×4 minutes. The supernatant is discarded. The pellets are resuspended in 100 microliters of tissue solubilizing fluid (NCS from Amersham Corporation) and incubated for 2 hours at 50° C. Fifty microliter aliquots of the solubilized pellets are transferred into plastic scintillation vials containing 3 milliliters of scintillation fluid (Econofluor, New England Nuclear), allowed to cool and dark adjust, and counted.
A variation of the previously described experiment was used to determine the effects of BAY e 9736 on a different parameter of tumor cell proliferation, the replication of deoxyribonucleic acid (DNA) as measured by the incorporation of ^3 H-thymidine into tumor cell DNA. B16a tumor cells were grown in T-75 flasks and removed using trypsin, as previously described for Walker 256 L-Pam tumor cells. The B16a cells are quenched, washed, and resuspended in media (MEM+10% fetal calf serum, FCS) to a concentration of 1×10^5 cells/ml. One milliliter of tumor cells are placed into 5 ml plastic incubation tubes, and five microliters of media, dilutant, or dilutant containing 8, 4, or 2 milligram/ml BAY e 9736 are added to appropriate tubes. The assay was run, terminated, and the B16a tumor cell DNA extracted and counted as previously described.
Protocol same as previously described except nifedipine (40 mg) is first dissolved in absolute ethanol (0.5 ml) and then diluted with PEG-400 (1.5 ml) to a final concentration of 20 mg/ml. One microliter of the 20 mg/ml nifedipine solution was added to one ml of B16a tumor cells (for final concentration of 20 micrograms/ml). Nimodipine was dissolved as previously described.
On the technique in general: Dividing cells build labelled thymidine or BrdU into new DNA.

For the compound `COCCOC(=O)C1=C(C)NC(C)=C(C(=O)OC(C)C)C1c1cccc([N+](=O)[O-])c1` (stereo not drawn) [BAY e 9736, 1,4-dihydro-2,6-dimethyl-4-(3' nitrophenyl)-pyridine-3-(beta-methyoxyethylester)-5-(isopropyl ester)], the “effect on tumor cell adhesion to endothelial cell monolayer (in words)” value in assay [1] was “decreased the percent of cells adhering to the plastic wells as well as the endothelial cell monolayer; also recorded: significant in all groups tested”; in assay [1] (listed as nimodipine), “decreases or inhibits the adhesion of tumor cells to plastic incubation wells and to virally transformed endothelial cell monolayers”. The inhibition at 40 µg/mL in assay [1] (A = tumor cells alone) is 50%; in assay [1] (B = tumor cells + platelets), 65 ± 7.8%; in assay [1] (C = tumor cells + PPP), 60 ± 5%; in assay [1] (D = tumor cells + PPP + platelets), 53 ± 5.5%. The “effect on 3H-thymidine incorporation (in words)” value in the assay on B16a Tumor Cells is reported as “inhibited the incorporation of ^3 H-thymidine into the tumor cell DNA”; with B16a Tumor Cells (listed as nimodipine), “decreases the rate of incorporation of ^3 H-thymidine into tumor cell DNA”. Besides, in the assay with B16a Tumor Cells (Mus musculus, .01 mg/ml, 15 min preincubation, 1 hour incorporation, x ± SEM, n = 4, read-out: % of Control Tumor Cell Incorporation (3H-thymidine)), the activity at 10 µg/mL came out at 77 ± 2.5%. Also, in the assay on B16a Tumor Cells (Mus musculus, .02 mg/ml, 15 min preincubation, 1 hour incorporation, x ± SEM, n = 4, read-out: % of Control Tumor Cell Incorporation (3H-thymidine)), the activity at 20 µg/mL worked out at 56 ± 3.5%. Further, the activity at 40 µg/mL in the assay with B16a Tumor Cells (Mus musculus, .04 mg/ml, 15 min preincubation, 1 hour incorporation, x ± SEM, n = 4, read-out: % of Control Tumor Cell Incorporation (3H-thymidine)) worked out at 38 ± 4%.

A word on the inhibition: it is the relative decrease from the control value, in per cent.
